Data set [1] is described as follows: Prodrug activation mediated by mushroom tyrosinase assessed as N-{4-[bis-(2-chloroethyl)amino]benzoyl}-N''-(4-hydroxybenzylidene)hydrazine formation up to 120 mins by TLC, HPLC or MS analysis. The settings on record: agaricus bisporus, 2 h.
In data set [2] the test system is B16-F10. In words: Cytotoxicity against mouse B16F10 cells at 250 uM after 24 to 48 hrs by MTT assay. Format: functional, cell-based. In general terms: Tetrazolium assays rely on reduction of a dye to a coloured formazan, in cell work by metabolically active cells.
Data set [3] is described as follows: Prodrug activation mediated by mushroom tyrosinase assessed as 5,6-dihydroxy-1H-indazol-1-yl 4-[bis-(2-chloroethyl)amino]benzoate formation up to 120 mins by UV-Vis spectroscopy. To be noted: agaricus bisporus, 2 h.
Data set [4] relates to NIH3T3. The data set can be described thus: Cytotoxicity against mouse NIH/3T3 cells at 250 uM after 24 to 48 hrs by MTT assay. To be noted: nih3t3, 250 µM. Format: cell-based.
The nature of data set [5]: Prodrug activation mediated by mushroom tyrosinase assessed as 4-[bis-(2-chloroethyl) amino]benzoic cid formation up to 120 mins by TLC, HPLC or MS analysis. The settings on record: agaricus bisporus, 2 h.
Data set [6] can be described thus: Cytotoxicity against mouse HECa10 cells at 250 uM after 24 to 48 hrs by MTT assay. Format: cell-based.
Data set [7] has as its system B16-F10. The data set can be described thus: Antitumor activity against mouse B16F10 cells […] in C57BL/6 mouse assessed as reduction of tumor size at 100 ug administered as intratumorally for 3 days. In kind it is functional, cell-based.

These results are taken from ChEMBL document CHEMBL3098120, “Synthesis and analysis of activity of a potential anti-melanoma prodrug with a hydrazine linker” (Eur J Med Chem, 2014).

Activity calls are given as the source filed them. No cut-off for these calls is given here.

Regarding `O=C(NNCc1ccc(O)cc1)c1ccc(N(CCCl)CCCl)cc1`, the Drug metabolism result in data set [1] was “Active”; in data set [3] it was “Active”; in data set [5], “Not Active”. The result in data set [2] and in data set [7] was Active. Besides, the Activity entry in data set [4] and in data set [6] was “Toxic” each time.
Turning to `N[C@@H](Cc1ccc(N(CCCl)CCCl)cc1)C(=O)O`, in data set [7], the result was Active.
